In data set [1] the target is T1, Focal adhesion kinase 1 (Homo sapiens, UniProt Q05397). Briefly: Inhibition of FAK (unknown origin).
Data set [2] has as its target Serine/threonine-protein kinase PLK1 (Homo sapiens, UniProt P53350). Briefly: Inhibition of PLK1 (unknown origin).
Data set [3] deals with Epidermal growth factor receptor (Homo sapiens, UniProt P00533, T790M). Briefly: Inhibition of EGFR T790M mutant (unknown origin).
The target of data set [4] is T1, Focal adhesion kinase 1. Briefly: Inhibition of FAK (unknown origin) by ADP-Glo kinase assay. (In general: ADP-Glo first removes unused ATP, then detects ADP through luciferase.)
For data set [5], the target named is T1, Focal adhesion kinase 1. Briefly: Inhibition of FAK (unknown origin) by HTRF assay.
Data set [6] concerns the target ALK tyrosine kinase receptor (Homo sapiens, UniProt Q9UM73). Briefly: Inhibition of ALK (unknown origin).
Data set [7] addresses Proto-oncogene tyrosine-protein kinase ROS (Homo sapiens, UniProt P08922). Briefly: Inhibition of ROS1 (unknown origin).
For data set [8], the target named is Protein cereblon/Focal adhesion kinase 1 (Homo sapiens, UniProt Q05397+Q96SW2). Briefly: PROTAC activity at CRBN/FAK in human PC3 cells assessed as protein degradation incubated for 12 hrs by Western blot analysis relative to control. The format is cell-based. As to conditions: pc-3. Background: In western blotting, separated proteins are transferred to a membrane and probed.

Data set [9] concerns the target T2, Protein-tyrosine kinase 2-beta (Homo sapiens, UniProt Q14289). Briefly: Inhibition of PYK2 (unknown origin) by KinomeScan assay.
Data set [10] is described as follows: Oral bioavailability in mouse. As to conditions: in vivo. In kind it is ADME, organism-based.
For data set [11], the target named is T2, Protein-tyrosine kinase 2-beta. Briefly: Inhibition of PYK2 (unknown origin).
Data set [12] addresses T1, Focal adhesion kinase 1. Briefly: Inhibition of FAK (unknown origin) by FRET analysis.
Data set [13] addresses T3, Protein deacetylase HDAC6 (Homo sapiens, UniProt Q9UBN7).
T3 sequence (Q9UBN7 whole entry): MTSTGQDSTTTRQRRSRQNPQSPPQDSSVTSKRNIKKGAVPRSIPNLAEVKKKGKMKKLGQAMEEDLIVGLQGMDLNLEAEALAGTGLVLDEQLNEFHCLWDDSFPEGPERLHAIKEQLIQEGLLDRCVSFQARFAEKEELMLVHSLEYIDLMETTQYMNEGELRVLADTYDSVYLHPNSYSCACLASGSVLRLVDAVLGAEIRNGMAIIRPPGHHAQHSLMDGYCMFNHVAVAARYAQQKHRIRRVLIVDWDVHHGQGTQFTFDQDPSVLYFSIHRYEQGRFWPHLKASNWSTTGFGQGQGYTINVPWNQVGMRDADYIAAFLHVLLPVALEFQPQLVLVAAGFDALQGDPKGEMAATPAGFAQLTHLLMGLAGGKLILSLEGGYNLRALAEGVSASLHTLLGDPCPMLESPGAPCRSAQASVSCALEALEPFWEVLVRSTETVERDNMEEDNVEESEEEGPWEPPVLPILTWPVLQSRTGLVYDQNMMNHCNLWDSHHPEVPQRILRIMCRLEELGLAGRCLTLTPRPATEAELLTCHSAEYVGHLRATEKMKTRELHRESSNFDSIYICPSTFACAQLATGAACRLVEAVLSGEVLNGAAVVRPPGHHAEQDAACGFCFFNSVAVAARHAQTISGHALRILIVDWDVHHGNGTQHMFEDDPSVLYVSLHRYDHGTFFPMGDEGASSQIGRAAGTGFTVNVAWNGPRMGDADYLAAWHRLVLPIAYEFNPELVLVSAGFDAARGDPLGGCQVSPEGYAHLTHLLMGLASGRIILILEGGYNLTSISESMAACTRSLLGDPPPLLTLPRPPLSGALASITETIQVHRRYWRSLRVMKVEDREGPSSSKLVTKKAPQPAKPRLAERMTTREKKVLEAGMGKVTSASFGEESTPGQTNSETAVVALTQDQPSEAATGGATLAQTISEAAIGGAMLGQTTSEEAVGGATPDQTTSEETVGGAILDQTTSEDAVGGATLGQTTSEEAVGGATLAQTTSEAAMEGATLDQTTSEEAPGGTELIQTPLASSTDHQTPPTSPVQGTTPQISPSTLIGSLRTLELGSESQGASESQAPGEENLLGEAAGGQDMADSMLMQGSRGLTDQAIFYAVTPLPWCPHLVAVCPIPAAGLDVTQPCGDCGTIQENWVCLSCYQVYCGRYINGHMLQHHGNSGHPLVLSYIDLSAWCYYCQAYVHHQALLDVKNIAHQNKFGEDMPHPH
Briefly: Inhibition of HDAC6 (unknown origin).

The target in data set [14] is T1, Focal adhesion kinase 1. Briefly: Inhibition of N-terminal his-tagged human (1 to 422 residues) FAK.
In data set [15] the target is T1, Focal adhesion kinase 1. Briefly: Binding affinity to FAK (unknown origin) assessed as inhibition constant.
The test system of a further data set is BXPC-3. Briefly: Antiproliferative activity against human BXPC-3 cells. In kind it is functional, cell-based.
Data set [16] in a line: Plasma stability in human assessed as half life by LC-MS/MS analysis. The format is ADME, cell-free.
The target in data set [17] is Fibroblast growth factor receptor (Homo sapiens, UniProt P22607+P11362+P22455+P21802). Briefly: Inhibition of human recombinant FGFR by FRET assay. The format is protein assay.
Data set [18] deals with T1, Focal adhesion kinase 1. Briefly: Inhibition of human FAK by FRET assay.

SMILES strings stand for the structures.

T1 sequence (Q05397 whole entry): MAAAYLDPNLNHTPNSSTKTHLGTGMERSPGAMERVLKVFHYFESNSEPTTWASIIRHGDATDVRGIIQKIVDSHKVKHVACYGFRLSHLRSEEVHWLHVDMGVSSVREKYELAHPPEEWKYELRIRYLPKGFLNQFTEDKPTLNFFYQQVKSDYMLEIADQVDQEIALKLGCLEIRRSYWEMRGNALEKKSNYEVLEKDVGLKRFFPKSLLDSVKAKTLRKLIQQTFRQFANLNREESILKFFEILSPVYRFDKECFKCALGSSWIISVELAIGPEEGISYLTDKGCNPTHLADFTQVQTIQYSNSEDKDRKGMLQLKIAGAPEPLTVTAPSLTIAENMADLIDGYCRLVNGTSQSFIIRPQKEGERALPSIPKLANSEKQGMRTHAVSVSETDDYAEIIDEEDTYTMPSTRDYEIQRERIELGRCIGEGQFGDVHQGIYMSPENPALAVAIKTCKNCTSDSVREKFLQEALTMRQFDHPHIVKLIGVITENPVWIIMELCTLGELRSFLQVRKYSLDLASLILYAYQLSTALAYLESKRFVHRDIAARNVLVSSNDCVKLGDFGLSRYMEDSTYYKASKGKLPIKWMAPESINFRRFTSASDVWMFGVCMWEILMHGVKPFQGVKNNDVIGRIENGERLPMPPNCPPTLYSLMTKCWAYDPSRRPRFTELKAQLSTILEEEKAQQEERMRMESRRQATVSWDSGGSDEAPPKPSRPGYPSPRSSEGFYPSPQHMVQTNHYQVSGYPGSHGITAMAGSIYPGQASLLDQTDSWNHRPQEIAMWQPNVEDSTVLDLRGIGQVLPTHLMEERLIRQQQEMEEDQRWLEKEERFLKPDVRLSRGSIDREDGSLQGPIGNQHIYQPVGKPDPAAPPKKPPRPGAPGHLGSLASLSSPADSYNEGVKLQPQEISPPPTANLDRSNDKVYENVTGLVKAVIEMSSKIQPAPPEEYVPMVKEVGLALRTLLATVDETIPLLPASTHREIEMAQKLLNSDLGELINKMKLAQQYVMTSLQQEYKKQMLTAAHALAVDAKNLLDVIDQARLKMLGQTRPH
T2 sequence (Q14289 whole entry): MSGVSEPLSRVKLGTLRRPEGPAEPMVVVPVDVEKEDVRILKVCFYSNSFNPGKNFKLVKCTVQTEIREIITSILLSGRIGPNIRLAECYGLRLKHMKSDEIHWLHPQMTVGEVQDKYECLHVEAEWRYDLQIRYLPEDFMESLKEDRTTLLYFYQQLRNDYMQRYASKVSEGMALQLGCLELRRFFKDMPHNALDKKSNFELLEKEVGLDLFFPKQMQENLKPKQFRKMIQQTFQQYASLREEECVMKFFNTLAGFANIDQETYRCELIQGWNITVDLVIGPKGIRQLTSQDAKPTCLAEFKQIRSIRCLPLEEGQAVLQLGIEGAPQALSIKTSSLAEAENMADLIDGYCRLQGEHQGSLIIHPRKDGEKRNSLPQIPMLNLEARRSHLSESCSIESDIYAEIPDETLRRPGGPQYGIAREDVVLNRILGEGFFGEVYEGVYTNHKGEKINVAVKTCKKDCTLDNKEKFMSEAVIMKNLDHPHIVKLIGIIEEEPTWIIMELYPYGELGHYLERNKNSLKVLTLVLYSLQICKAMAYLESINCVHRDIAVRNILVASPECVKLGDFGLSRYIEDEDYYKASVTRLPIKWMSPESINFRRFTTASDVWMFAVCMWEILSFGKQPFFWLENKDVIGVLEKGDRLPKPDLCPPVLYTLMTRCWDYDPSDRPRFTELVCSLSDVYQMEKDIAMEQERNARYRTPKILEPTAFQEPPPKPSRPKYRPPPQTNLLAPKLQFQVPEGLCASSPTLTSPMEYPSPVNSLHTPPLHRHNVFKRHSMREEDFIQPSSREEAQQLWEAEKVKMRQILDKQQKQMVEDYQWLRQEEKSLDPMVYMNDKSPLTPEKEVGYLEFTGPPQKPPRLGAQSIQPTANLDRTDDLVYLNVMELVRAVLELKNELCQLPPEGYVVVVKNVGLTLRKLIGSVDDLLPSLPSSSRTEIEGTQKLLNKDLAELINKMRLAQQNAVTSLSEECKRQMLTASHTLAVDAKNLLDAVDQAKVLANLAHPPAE
Protein cereblon/Focal adhesion kinase 1, sequence (Q05397 whole entry): as the sequence (Q05397 whole entry) above
Protein cereblon/Focal adhesion kinase 1, sequence (Q96SW2 whole entry): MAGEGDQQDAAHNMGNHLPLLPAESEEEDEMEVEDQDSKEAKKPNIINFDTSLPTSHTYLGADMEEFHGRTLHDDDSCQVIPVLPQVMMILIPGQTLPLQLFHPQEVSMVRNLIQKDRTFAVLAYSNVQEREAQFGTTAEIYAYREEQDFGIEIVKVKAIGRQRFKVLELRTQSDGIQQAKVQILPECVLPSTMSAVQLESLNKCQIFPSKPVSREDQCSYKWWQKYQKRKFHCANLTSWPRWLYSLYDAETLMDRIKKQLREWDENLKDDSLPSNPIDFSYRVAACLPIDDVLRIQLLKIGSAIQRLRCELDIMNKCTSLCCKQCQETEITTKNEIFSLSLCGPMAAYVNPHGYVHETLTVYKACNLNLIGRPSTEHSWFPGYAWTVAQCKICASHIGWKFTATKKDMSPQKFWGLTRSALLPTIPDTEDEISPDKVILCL
Epidermal growth factor receptor, sequence (P00533 25-1210 T790M limits assumed): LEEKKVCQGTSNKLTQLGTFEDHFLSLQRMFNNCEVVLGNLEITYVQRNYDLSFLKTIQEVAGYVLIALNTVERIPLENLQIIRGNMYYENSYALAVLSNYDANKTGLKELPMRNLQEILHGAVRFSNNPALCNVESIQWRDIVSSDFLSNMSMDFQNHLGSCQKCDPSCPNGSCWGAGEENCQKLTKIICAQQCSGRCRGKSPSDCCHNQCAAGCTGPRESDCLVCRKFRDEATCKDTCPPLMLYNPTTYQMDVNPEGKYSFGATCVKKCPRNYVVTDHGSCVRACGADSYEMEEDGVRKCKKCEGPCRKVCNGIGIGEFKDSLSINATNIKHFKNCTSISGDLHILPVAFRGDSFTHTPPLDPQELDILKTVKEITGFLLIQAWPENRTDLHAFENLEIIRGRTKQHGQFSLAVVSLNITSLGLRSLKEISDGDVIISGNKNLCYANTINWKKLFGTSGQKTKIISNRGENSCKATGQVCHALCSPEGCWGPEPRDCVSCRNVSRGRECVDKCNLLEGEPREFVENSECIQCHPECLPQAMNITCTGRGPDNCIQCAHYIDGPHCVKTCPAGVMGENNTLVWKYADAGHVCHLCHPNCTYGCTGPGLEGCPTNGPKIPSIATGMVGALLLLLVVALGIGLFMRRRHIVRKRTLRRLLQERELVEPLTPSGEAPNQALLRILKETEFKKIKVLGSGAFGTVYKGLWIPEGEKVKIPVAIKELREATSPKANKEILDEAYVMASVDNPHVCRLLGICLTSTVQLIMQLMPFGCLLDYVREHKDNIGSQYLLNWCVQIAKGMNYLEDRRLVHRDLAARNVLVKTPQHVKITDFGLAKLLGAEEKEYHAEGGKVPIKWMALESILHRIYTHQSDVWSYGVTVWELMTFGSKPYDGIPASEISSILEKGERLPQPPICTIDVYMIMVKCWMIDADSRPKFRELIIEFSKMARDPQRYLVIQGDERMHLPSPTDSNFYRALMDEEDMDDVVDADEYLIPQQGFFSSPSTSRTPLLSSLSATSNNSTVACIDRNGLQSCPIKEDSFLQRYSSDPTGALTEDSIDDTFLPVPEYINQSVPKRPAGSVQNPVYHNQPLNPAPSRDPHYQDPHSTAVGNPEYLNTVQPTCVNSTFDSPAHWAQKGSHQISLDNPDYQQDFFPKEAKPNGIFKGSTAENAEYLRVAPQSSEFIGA
Serine/threonine-protein kinase PLK1, sequence (P53350 whole entry): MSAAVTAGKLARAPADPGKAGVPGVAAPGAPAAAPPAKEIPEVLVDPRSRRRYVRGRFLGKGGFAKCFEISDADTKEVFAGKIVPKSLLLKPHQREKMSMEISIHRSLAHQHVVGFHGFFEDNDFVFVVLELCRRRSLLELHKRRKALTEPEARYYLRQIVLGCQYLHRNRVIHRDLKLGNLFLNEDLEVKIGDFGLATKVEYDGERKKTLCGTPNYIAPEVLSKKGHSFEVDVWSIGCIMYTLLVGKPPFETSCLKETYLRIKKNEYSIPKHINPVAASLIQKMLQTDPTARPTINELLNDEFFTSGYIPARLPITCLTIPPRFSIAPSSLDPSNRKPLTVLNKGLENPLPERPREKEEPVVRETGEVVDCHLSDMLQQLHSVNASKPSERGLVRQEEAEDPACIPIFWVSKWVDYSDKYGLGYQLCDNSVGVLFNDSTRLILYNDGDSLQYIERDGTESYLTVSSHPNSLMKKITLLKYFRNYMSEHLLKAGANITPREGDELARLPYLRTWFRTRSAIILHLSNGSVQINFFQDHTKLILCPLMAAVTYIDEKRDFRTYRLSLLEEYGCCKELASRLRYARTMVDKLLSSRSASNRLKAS

For `O=C(CSC1Nc2ccccc2C(=O)N1c1ccccc1)N1CCN(c2ccccc2Cl)CC1` (stereo not drawn), the figures for the IC50 (on Focal adhesion kinase 1 [1]; in data set [2]) were 86 nM and 79 nM, respectively.
As for `CNC(=O)c1ccccc1Nc1nc(Nc2ccc(N3CCN(C)CC3)cc2)nc2[nH]ccc12`, the IC50 against Focal adhesion kinase 1 [1] worked out at 19.1 nM.
For `CNC(=O)c1ccccc1Nc1nc(Nc2ccc(NC(=O)CN3CCOCC3)c(C)c2)ncc1Cl`, the IC50 in [3] turned out to be 3.89 nM; against Focal adhesion kinase 1 [4], 1.03 nM.
`Clc1cccc(Cn2ccc3cnc(Nc4ccc(N5CCNCC5)cc4)nc32)c1`: it took 9.9 nM to reach half-maximal inhibition on Focal adhesion kinase 1 [5] (IC50).
Take `Cc1cc(Nc2ncc(Cl)c(Nc3ccccc3S(=O)(=O)C(C)C)n2)c(OC(C)C)cc1C1=CCN(C2CCOCC2)CC1` [APG-2449]: the IC50 worked out at 5.4 nM against Focal adhesion kinase 1 [1], 1.6 nM in data set [6] and 0.81 nM in [7].
As for `Cc1ncsc1-c1ccc(CNC(=O)[C@@H]2C[C@@H](O)CN2C(=O)[C@@H](NC(=O)CCOCCOc2ccc(Nc3ncc(C(F)(F)F)c(NCc4cccc(N(C)S(C)(=O)=O)c4)n3)cc2)C(C)(C)C)cc1`, the DC50 in data set [8] came out at 3 nM.
`CNC(=O)c1ccccc1Nc1cc(Nc2cc(C)c(C3CCNCC3)cc2OC(C)C)ncc1C(F)(F)F`: the IC50 in [9] came out at 623 nM.
In the case of `C=CC(=O)NCCNc1c(NCc2ccc(Nc3ncc(Cl)c(Nc4ccccc4C(=O)NC)n3)cc2)c(=O)c1=O`, the bioavailability in [10] was 21%.
As for `CNC(=O)c1ccc(Nc2ncc(C(F)(F)F)c(NCc3nccnc3N(C)S(C)(=O)=O)n2)cc1` [DEFACTINIB], the half-inhibitory concentration (IC50) in data set [11] came out at 0.6 nM.
In the case of `CNC(=O)c1ccccc1Nc1cc(Nc2ccc(NC(=O)CCCCCCC(=O)NO)cc2)ncc1Cl`, the half-maximal inhibitory concentration (IC50) amounted to 132 nM at Focal adhesion kinase 1 [12] and 16 nM in data set [13].
For the molecule `OCC[N+]12CN3CN(CN(C3)C1)C2`, half-maximal inhibition on Focal adhesion kinase 1 [14] (IC50) was put at 50 nM.
Take `CONC(=O)c1ccccc1Nc1cc(Nc2cc(C)nn2C(C)C)ncc1Cl` [GSK-2256098]: on Focal adhesion kinase 1 [15], the Ki stood at 0.4 nM.
In the data set on BXPC-3, `Cn1cc(-c2nn3cc(-c4ccco4)nc3s2)c2ccccc21` returned a concentration for half-maximal inhibition (IC50) of 1040 nM.
As for `CN(c1ncccc1CNc1nc(Nc2ccc(N3CCN(CCCCCCC(=O)NCCNc4cccc5c4C(=O)N(C4CCC(=O)NC4=O)C5=O)CC3)cc2)ncc1C(F)(F)F)S(C)(=O)=O` (stereo not drawn), the half-life in data set [16] was > 3.25 h.
As to `CNC(=O)c1ccccc1Nc1ncnc(Nc2cc(OC)c(OC)c(OC)c2)n1`, the IC50 in data set [17] came to 370 nM.
Turning to `CNC(=O)c1ccccc1Nc1cc(Nc2ccc(N3CCN(CC(=O)N[C@H](C(=O)N4C[C@H](O)C[C@H]4C(=O)N[C@@H](C)c4ccc(-c5scnc5C)cc4)C(C)(C)C)CC3)cc2OC)ncc1C(F)(F)F`, it took 1.58 nM to reach half-maximal inhibition against Focal adhesion kinase 1 [18] (IC50).
`CNC(=O)c1ccccc1Nc1cc(Nc2cc(C)c(C3CCN(CCCCCCNC(=O)COc4cccc5c4C(=O)N(C4CCC(=O)NC4=O)C5=O)CC3)cc2OC(C)C)ncc1C(F)(F)F` (stereo not drawn) returned an IC50 on Focal adhesion kinase 1 [1] of 26 nM.
For the molecule `O=C1CCc2cccc(Oc3nc(Nc4ccc(N5CCN(C(=S)SCCCN6CCOCC6)CC5)cc4)ncc3C(F)(F)F)c21`, the concentration for half-maximal inhibition (IC50) on Focal adhesion kinase 1 [1] amounted to 45 nM.

As a reminder, the IC50 is the midpoint of a concentration-inhibition curve. The term DC50 denotes the midpoint of the concentration-degradation curve. As a reminder, the bioavailability is dose-corrected exposure relative to a reference, in per cent. A high value points to good availability. What is called Ki is the dissociation constant of the complex between target and ligand, obtained from inhibition or displacement. The half-life is the time needed for the level to fall by half in the phase considered.
